Measured values from patent US12102089B2, “Method for inactivating mold spores” (DSM IP ASSETS B.V., priority 2017, dated 2024).

Columns and labels:
[1] = system: in-house strain of Aspergillus niger; experiment: Heat treatment of in-house Aspergillus niger spores in ice tea with natamycin, visual growth; format: cell-based; parameters: key to growth or no growth: growth (+); no growth (−)
Description: Commercially available ice tea (Lipton, peach flavor, non-carbonated, 1.5 L) was adjusted to high water hardness by adding 1 ml of a solution of 39 g CaCl2 and 27 g MgCl2 added to 934 g water. ⅓ of this ice tea preparation (the pH of which was 3.15) was left as-such, ⅓ of the preparation was enriched with 5 ppm natamycin and ⅓ of the preparation was enriched with 10 ppm natamycin. Samples of 5 ml were made from each preparation in 15 ml sterile plastic tubes. Of each preparation 8 samples were pre-heated to the desired pasteurization temperature using a water bath. Temperatures used were RT, 60, 65, 70, 75, 80, 85 and 90° C. When the desired temperature was reached, 100 μl of a 2500 spores/ml spore suspension of Aspergillus niger ATCC 9029AA was added to each tube. Subsequently, the samples were kept for 30 seconds at the temperature in question in the water bath. Next, the samples were cooled on ice to a temperature of 25° C. Samples were incubated at 25° C. and visually examined for growth (formation of mold flakes or turbidity) for two months. Additionally, samples were enumerated according to ISO protocol 21527-1.2008 on day 0 (before heat treatment) and day 1 (after heat treatment) to count immediate loss of viability. […] For the results, see Table 1. […] For comparative reasons, Example 1 was repeated with an in-house strain of Aspergillus niger. […] For the results, see Table 2.

[2] = system: Taleromyces macrosporus CBS 130.89; conditions: 2.5 ppm natamycin, heat treatment, apple juice; cited from earlier work
[3] = LC-MS/MS analysis of natamycin and mycosamine in heated ice tea sample; format: physicochemical; conditions: 10 ppm natamycin at t=0, heated at 70° C.
Description: For the analysis of mycosamine at low concentrations (ppb level) a sample preparation is used with a cation exchange SPE material to isolate mycosamine from the sample matrix and/or remove possible interfering impurities therefrom. The analysis was performed on LC-MS/MS on a ZIC-HILIC column. For the identification and (semi) quantification a reference of mycosamine was prepared. The concentration of mycosamine in this reference was determined with ^1H-NMR.

C[C@@H]1C/C=C/C=C/C=C/C=C/[C@H](O[C@@H]2O[C@H](C)[C@@H](O)[C@H](N)[C@@H]2O)C[C@@H]2O[C@](O)(C[C@@H](O)C[C@H]3O[C@@H]3/C=C/C(=O)O1)C[C@H](O)[C@H]2C(=O)O [natamycin]
growth or no growth ([1]; 60°C, 5 ppm, day 1): − | growth or no growth ([1]; 60°C, 5 ppm, day 2): − | growth or no growth ([1]; 60°C, 5 ppm, day 3): − | growth or no growth ([1]; 60°C, 5 ppm, day 4): − | growth or no growth ([1]; 60°C, 5 ppm, day 5): − | growth or no growth ([1]; 60°C, 5 ppm, day 6): − | growth or no growth ([1]; 60°C, 5 ppm, day 7): + | growth or no growth ([1]; 60°C, 5 ppm, day 8): + | growth or no growth ([1]; 60°C, 5 ppm, day 9): + | growth or no growth ([1]; 60°C, 5 ppm, day 10): + | growth or no growth ([1]; 60°C, 5 ppm, day 11): + | growth or no growth ([1]; 60°C, 5 ppm, day 12): + | growth or no growth ([1]; 60°C, 5 ppm, day 13): + | growth or no growth ([1]; 60°C, 5 ppm, day 14): + | growth or no growth ([1]; 60°C, 10 ppm, day 1): − | growth or no growth ([1]; 60°C, 10 ppm, day 2): − | growth or no growth ([1]; 60°C, 10 ppm, day 3): − | growth or no growth ([1]; 60°C, 10 ppm, day 4): − | growth or no growth ([1]; 60°C, 10 ppm, day 5): − | growth or no growth ([1]; 60°C, 10 ppm, day 6): − | growth or no growth ([1]; 60°C, 10 ppm, day 7): − | growth or no growth ([1]; 60°C, 10 ppm, day 8): − | growth or no growth ([1]; 60°C, 10 ppm, day 9): − | growth or no growth ([1]; 60°C, 10 ppm, day 10): − | growth or no growth ([1]; 60°C, 10 ppm, day 11): + | growth or no growth ([1]; 60°C, 10 ppm, day 12): + | growth or no growth ([1]; 60°C, 10 ppm, day 13): + | growth or no growth ([1]; 60°C, 10 ppm, day 14): + | germination ([1]; 65° C., 70° C. and 80° C., in the presence of natamycin): no germination occurred | growth or no growth ([1]; 65°C, 5 ppm, day 1): − | growth or no growth ([1]; 65°C, 5 ppm, day 2): − | growth or no growth ([1]; 65°C, 5 ppm, day 3): − | growth or no growth ([1]; 65°C, 5 ppm, day 4): − | growth or no growth ([1]; 65°C, 5 ppm, day 5): − | growth or no growth ([1]; 65°C, 5 ppm, day 6): − | growth or no growth ([1]; 65°C, 5 ppm, day 7): − | growth or no growth ([1]; 65°C, 5 ppm, day 8): − | growth or no growth ([1]; 65°C, 5 ppm, day 9): − | growth or no growth ([1]; 65°C, 5 ppm, day 10): − | growth or no growth ([1]; 65°C, 5 ppm, day 11): − | growth or no growth ([1]; 65°C, 5 ppm, day 12): − | growth or no growth ([1]; 65°C, 5 ppm, day 13): − | growth or no growth ([1]; 65°C, 5 ppm, day 14): − | growth or no growth ([1]; 65°C, 10 ppm, day 1): − | growth or no growth ([1]; 65°C, 10 ppm, day 2): − | growth or no growth ([1]; 65°C, 10 ppm, day 3): − | growth or no growth ([1]; 65°C, 10 ppm, day 4): − | growth or no growth ([1]; 65°C, 10 ppm, day 5): − | growth or no growth ([1]; 65°C, 10 ppm, day 6): − | growth or no growth ([1]; 65°C, 10 ppm, day 7): − | growth or no growth ([1]; 65°C, 10 ppm, day 8): − | growth or no growth ([1]; 65°C, 10 ppm, day 9): − | growth or no growth ([1]; 65°C, 10 ppm, day 10): − | growth or no growth ([1]; 65°C, 10 ppm, day 11): − | growth or no growth ([1]; 65°C, 10 ppm, day 12): − | growth or no growth ([1]; 65°C, 10 ppm, day 13): − | growth or no growth ([1]; 65°C, 10 ppm, day 14): − | growth or no growth ([1]; 70°C, 5 ppm, day 1): − | growth or no growth ([1]; 70°C, 5 ppm, day 2): − | growth or no growth ([1]; 70°C, 5 ppm, day 3): − | growth or no growth ([1]; 70°C, 5 ppm, day 4): − | growth or no growth ([1]; 70°C, 5 ppm, day 5): − | growth or no growth ([1]; 70°C, 5 ppm, day 6): − | growth or no growth ([1]; 70°C, 5 ppm, day 7): − | growth or no growth ([1]; 70°C, 5 ppm, day 8): − | growth or no growth ([1]; 70°C, 5 ppm, day 9): − | growth or no growth ([1]; 70°C, 5 ppm, day 10): − | growth or no growth ([1]; 70°C, 5 ppm, day 11): − | growth or no growth ([1]; 70°C, 5 ppm, day 12): − | growth or no growth ([1]; 70°C, 5 ppm, day 13): − | growth or no growth ([1]; 70°C, 5 ppm, day 14): − | growth or no growth ([1]; 70°C, 10 ppm, day 1): − | growth or no growth ([1]; 70°C, 10 ppm, day 2): − | growth or no growth ([1]; 70°C, 10 ppm, day 3): − | growth or no growth ([1]; 70°C, 10 ppm, day 4): − | growth or no growth ([1]; 70°C, 10 ppm, day 5): − | growth or no growth ([1]; 70°C, 10 ppm, day 6): − | growth or no growth ([1]; 70°C, 10 ppm, day 7): − | growth or no growth ([1]; 70°C, 10 ppm, day 8): − | growth or no growth ([1]; 70°C, 10 ppm, day 9): − | growth or no growth ([1]; 70°C, 10 ppm, day 10): − | growth or no growth ([1]; 70°C, 10 ppm, day 11): − | growth or no growth ([1]; 70°C, 10 ppm, day 12): − | growth or no growth ([1]; 70°C, 10 ppm, day 13): − | growth or no growth ([1]; 70°C, 10 ppm, day 14): − | growth or no growth ([1]; 75°C, 5 ppm, day 1): − | growth or no growth ([1]; 75°C, 5 ppm, day 2): − | growth or no growth ([1]; 75°C, 5 ppm, day 3): − | growth or no growth ([1]; 75°C, 5 ppm, day 4): − | growth or no growth ([1]; 75°C, 5 ppm, day 5): − | growth or no growth ([1]; 75°C, 5 ppm, day 6): − | growth or no growth ([1]; 75°C, 5 ppm, day 7): − | growth or no growth ([1]; 75°C, 5 ppm, day 8): − | growth or no growth ([1]; 75°C, 5 ppm, day 9): − | growth or no growth ([1]; 75°C, 5 ppm, day 10): − | growth or no growth ([1]; 75°C, 5 ppm, day 11): − | growth or no growth ([1]; 75°C, 5 ppm, day 12): − | growth or no growth ([1]; 75°C, 5 ppm, day 13): − | growth or no growth ([1]; 75°C, 5 ppm, day 14): − | growth or no growth ([1]; 75°C, 10 ppm, day 9): − | growth or no growth ([1]; 75°C, 10 ppm, day 10): − | germination ([1]; RT and 60° C., 5 ppm natamycin): delayed germination | germination ([1]; RT and 60° C., 10 ppm natamycin): longer delay | duration of prevention of germination [2]: 4 days | natamycin found in sample ([3]; Example 1 ice tea sample (pH 3.15)): < 0.04 mg/L | natamycin found in sample ([3]; Example 2 ice tea sample): < 0.04 mg/L | natamycin found in sample ([3]; Example 3 ice tea sample): < 0.04 mg/L
